Measured values published in patent US20020086278A1, “CHROMOGENIC MEDIA CONTAINING BLOOD OR HEMIN” (priority 1999, published 2002).
“Also recorded” adds a separate entry of the source.

How the values were obtained:
S. pneumoniae (stpn) = assay: Example 3: colony color on chromogenic TSA II with 5% sheep blood (chromogen in medium); type: cell-based; settings: for Colony Color on Various Chromogenic TSA II with 5% Sheep Blood: CO2, 18 h
E. faecium (enfu) = assay: as above; type: cell-based
[1] = test system: Serratia marcescens (sema); assay: as above; type: cell-based
milu 9341 = assay: as above; type: cell-based; settings: CO2, 18 h
[2] = test system: Staphylococcus aureus (stau); assay: as above; type: cell-based
[3] = test system: Gardnerella vaginalis 14019; assay: Example 1: growth and colony color on plates surface-spread with chromogen; type: cell-based; settings: Summary of Table I; G. vaginalis 14014
S. milleri (stmi) = assay: Example 3: colony color on chromogenic TSA II with 5% sheep blood (chromogen in medium); type: cell-based
[4] = test system: Citrobacter freundii (cifr); assay: as above; type: cell-based; settings: for Colony Color: CO2, 18 h
S pyogenes (stpy) = assay: as above; type: cell-based; settings: CO2, 18 h
[5] = test system: Pseudomonas aeruginosa (psae); assay: as above; type: cell-based; settings: for Colony Color: CO2, 18 h
Group B Strep. 12386 = assay: Example 1: growth and colony color on plates surface-spread with chromogen; type: cell-based; settings: for Color: Group B Strep 12386
[6] = test system: E. coli (non-O157) (esco); type: cell-based; settings: chromogenic TSA II with 5% Sheep Blood, 0.1 g/l; 3 strains tested
cakr 34135 = assay: Example 3: colony color on chromogenic TSA II with 5% sheep blood (chromogen in medium); type: cell-based; settings: CO2, 18 h
E. coli 25922 = assay: Example 2: effect of incubation conditions on colony color formation; type: cell-based, Escherichia coli; settings: 0.004 g/plate
[7] = test system: Klebsiella pneumoniae (klpn); assay: Example 3: colony color on chromogenic TSA II with 5% sheep blood (chromogen in medium); type: cell-based; settings: for Colony Color: CO2, 18 h
[8] = test system: Entercoccus faecalis (enfa); assay: as above; type: cell-based; settings: for Colony Color: CO2, 18 h
[9] = test system: Aeromonas hydrophilia (aehy); assay: as above; type: cell-based; settings: for Colony Color: CO2, 18 h
Candida albicans (caal) = assay: as above; type: cell-based
[10] = test system: Staphylococcus Coag Neg (step); assay: as above; type: cell-based; settings: for Colony Color on Various Chromogenic TSA II with 5% Sheep Blood: CO2, 18 h
[11] = test system: Branhamella catarrhalis (brca); assay: as above; type: cell-based; settings: for Colony Color: CO2, 18 h
S. agalactiae 12386 = assay: Example 2: effect of incubation conditions on colony color formation; type: cell-based, Streptococcus agalactiae; settings: 0.004 g/plate, 24 h, CO2
Escherichia coli 25922 = assay: Example 1: growth and colony color on plates surface-spread with chromogen; type: cell-based; settings: E. coli 25922
[12] = chromogenic TSA II with 5% Sheep Blood, 0.1 g/l, 6 strains tested
[13] = chromogenic TSA II with 5% Sheep Blood, 0.1 g/l, 1 strain tested
[14] = chromogenic TSA II with 5% Sheep Blood, 0.1 g/l, 5 strains tested
[15] = chromogenic TSA II with 5% Sheep Blood, 0.1 g/l, 2 strains tested
[16] = chromogenic TSA II with 5% Sheep Blood, 0.1 g/l, 3 strains tested

O=C(O)[C@H]1O[C@@H](Oc2c[nH]c3ccc(Br)c(Cl)c23)[C@H](O)[C@@H](O)[C@@H]1O [X-Glucuro, X-Glucuronide]
Colony Color (Summary) (S. pneumoniae (stpn); [12]): 0 | Colony Color on Various Chromogenic TSA II with 5% Sheep Blood (S. pneumoniae (stpn); stpn t259): 0 | Colony Color on Various Chromogenic TSA II with 5% Sheep Blood (S. pneumoniae (stpn); stpn t260): 0 | Colony Color on Various Chromogenic TSA II with 5% Sheep Blood (S. pneumoniae (stpn); stpn t331): 0 | Colony Color on Various Chromogenic TSA II with 5% Sheep Blood (S. pneumoniae (stpn); stpn t628): 0 | Colony Color (Summary) (E. faecium (enfu); [13]): 0 | Colony Color (E. faecium (enfu); enfu 49032, CO2, 18 h): 0 | Colony Color (Summary) [1, 13]: 0 | Colony Color ([1]; sema 13880, CO2, 18 h): 0 | Colony Color (milu 9341): ly | Colony Color (Summary) [2, 14]: 0 | Colony Color ([2]; stau 25923, CO2, 18 h): 0 | Colony Color on Various Chromogenic TSA II with 5% Sheep Blood ([2]; stau t006, CO2, 18 h): 0 | Colony Color on Various Chromogenic TSA II with 5% Sheep Blood ([2]; stau t007, CO2, 18 h): 0 | Colony Color on Various Chromogenic TSA II with 5% Sheep Blood ([2]; stau t008, CO2, 18 h): 0 | Colony Color on Various Chromogenic TSA II with 5% Sheep Blood ([2]; stau t009, CO2, 18 h): 0 | Substrates Producing Growth Inhibition [3]: Glucuro | Colony Color (Summary) (S. milleri (stmi); [15]): 0 | Colony Color on Various Chromogenic TSA II with 5% Sheep Blood (S. milleri (stmi); stmi 6242, CO2, 18 h): 0 | Colony Color (Summary) [4, 15]: 0 | Colony Color ([4]; cifr 8454): 0 | Colony Color ([4]; cifr 33128): 0 | Colony Color on Various Chromogenic TSA II with 5% Sheep Blood (S pyogenes (stpy); stpy 51339): db beta | Colony Color on Various Chromogenic TSA II with 5% Sheep Blood (S pyogenes (stpy); stpy t027): 0 | Colony Color on Various Chromogenic TSA II with 5% Sheep Blood (S pyogenes (stpy); stpy t028): 0 | Colony Color on Various Chromogenic TSA II with 5% Sheep Blood (S pyogenes (stpy); stpy t029): 0 | Colony Color on Various Chromogenic TSA II with 5% Sheep Blood (S pyogenes (stpy); stpy t030): 0 | Colony Color (Summary) [5, 16]: 0 | Colony Color ([5]; psae 9027): 0 | Colony Color ([5]; psae 15442): 0 | Colony Color ([5]; psae 33607): 0 | Color (Group B Strep. 12386; Choc II): blue | Substrates Producing Color (Group B Strep. 12386; Summary of Table I, Group B Strep. 12386): Glucuro | Color (Group B Strep. 12386; TSA II 5SB): blue with beta hemolysis; also recorded: blue (a) | Color (Group B Strep. 12386; TSA Plain): blue | Colony Color (Summary) [6]: + | Colony Color (cakr 34135): 0 | Colony Color (E. coli 25922; Chocolate II Agar, 24 h, air): blue (d) | Colony Color (E. coli 25922; TSA II 5% Sheep Blood, 24 h, air): blue (d) | Colony Color (E. coli 25922; TSA II 5% Sheep Blood, 5 d, ANA): blue (m) | Colony Color (E. coli 25922; TSA II 5% Sheep Blood, 5 d, MA): blue (m) | Colony Color (Summary) [7, 16]: 0 | Colony Color ([7]; klpn 13883): 0 | Colony Color ([7]; klpn 33495): 0 | Colony Color ([7]; klpn 33606): 0 | Colony Color (Summary) [8, 12]: 0 | Colony Color ([8]; enfa 597): 0 | Colony Color ([8]; enfa 10741): 0 | Colony Color ([8]; enfa 12953): 0 | Colony Color ([8]; enfa 14506): 0 | Colony Color ([8]; enfa 29212): 0 | Colony Color ([9]; aehy 7965): 0 | Colony Color ([9]; aehy 7966): 0 | Colony Color ([9]; aehy 49847): 0 | Colony Color (Summary) [9, 16]: 0 | Colony Color (Candida albicans (caal); caal 10231, CO2, 18 h): 0 | Colony Color (Summary) (Candida albicans (caal); [15]): 0 | Colony Color (Summary) [10, 14]: 0 | Colony Color on Various Chromogenic TSA II with 5% Sheep Blood ([10]; step 12228): 0 | Colony Color on Various Chromogenic TSA II with 5% Sheep Blood ([10]; step cdc1): 0 | Colony Color on Various Chromogenic TSA II with 5% Sheep Blood ([10]; step cdc4): 0 | Colony Color on Various Chromogenic TSA II with 5% Sheep Blood ([10]; stha cdc2): 0 | Colony Color on Various Chromogenic TSA II with 5% Sheep Blood ([10]; stsa cdc3): 0 | Colony Color ([11]; brca 25238): 0 | Colony Color ([11]; brca 25240): 0 | Colony Color (Summary) [11, 15]: 0 | Colony Color (S. agalactiae 12386; Chocolate II Agar): blue (d) | Colony Color (S. agalactiae 12386; TSA II 5% Sheep Blood): blue (d) | Color (Escherichia coli 25922; Choc II): blue | Substrates Producing Color (Escherichia coli 25922; Summary of Table I): X-Glucuro | Color (Escherichia coli 25922; TSA II 5SB): blue | Color (Escherichia coli 25922; TSA Plain): blue
